Test results as given in patent US20030139296A1 (priority 2000, published 2003).
Counter-ions that a name gives are not always drawn. Like-named read-outs stand apart in the source and are kept apart here.

Columns and labels:
[1] = test system: Magnaporthe grisea KJ201; conditions: rice blast; for Degree of the disease severity: 28° C., 1 day, inoculated at fourth-leaf stage, scale 0~10; for Control value(%): versus distilled water-treated rice, HCl
[2] = test system: PAL, APX and HMGR defense genes; conditions: tomato stem soaked in aqueous solution at 50 u uM; FIG. 4
[3] = test system: Xanthomonas oryzae pv. oryzae KX021; conditions: bacterial leaf blight in rice; for Degree of the disease severity: distance from inoculated points to symptoms; for Control value(%): versus Tween 80-treated rice, HCl
[4] = test system: PR1, PBZ1 and POX22.3 defense genes
[5] = test system: PR1, PBZ1 and POX22.3 defense genes; conditions: in vivo
[6] = test system: PR1, PBZ1 and POX22.3 defense genes; conditions: FIG. 1
[7] = test system: Magnaporthe grisea KJ201; assay type: in vivo; conditions: rice blast; for Degree of the disease severity: 1 week after inoculation, scale 0~10; for Control value(%): versus Tween 80-treated rice
[8] = test system: defense genes in plants; conditions: compared among vitamin B1, vitamin B6 and vitamin C
[9] = 20 mM + Tween 80 (250 ppm) spray
[10] = 50 mM + Tween 80 (250 ppm) spray

In the case of `Cc1ncc(C[n+]2csc(CCO)c2C)c(N)n1` [Vitamin B1 HCl, thiamine HCl], the “Degree of the disease severity” value ([1]; seeds soaked at 20 mM) is reported as 5.4 ± 3.2, the “Control value(%)” value ([1]; seeds soaked at 20 mM) is reported as 44.4 ± 32.8% and the “Control value(%)” value ([1]; seeds soaked at 20 mM, listed as vitamin B1 hydrochloride) is reported as 44%. The “Degree of the disease severity” value ([1]; seeds soaked at 50 mM) was 2.3 ± 1.9, the “Control value(%)” value ([1]; seeds soaked at 50 mM) was 76.8 ± 19.5% and the “Control value(%)” value ([1]; seeds soaked at 50 mM, listed as vitamin B1 hydrochloride) was 77%. The “Time by which all the defense genes were expressed” value [2] was no more than 1 h, the “Degree of the disease severity” value ([3]; 5 mM + Tween 80 (250 ppm) spray, 1 week after inoculation) was 8.7 ± 0.6 and the “Control value(%)” value ([3]; 5 mM + Tween 80 (250 ppm)) was 10.3 ± 6.2%. The “Control value(%)” value ([3]; 5 mM + Tween 80 (250 ppm), listed as vitamin B1 hydrochloride) was “about 30%”, the “Degree of the disease severity” value ([3]; 10 mM + Tween 80 (250 ppm) spray, 1 week) was 4.2 ± 1.4 and the “Control value(%)” value ([3]; 10 mM + Tween 80 (250 ppm)) was 56.3 ± 14.4%. For the same molecule, the “Control value(%)” value ([3]; 10 mM + Tween 80 (250 ppm), listed as vitamin B1 hydrochloride) was “not less than 56%”, the “Control value(%)” value ([3]; 20 mM + Tween 80 (250 ppm)) was 68.3 ± 25.9% and the “Control value(%)” value ([3]; 20 mM + Tween 80 (250 ppm), listed as vitamin B1 hydrochloride) was no less than 68%. The “Degree of the disease severity” value ([3]; 50 mM + Tween 80 (250 ppm) spray, 1 week) was 0.2 ± 0.3, the “Control value(%)” value ([3]; 50 mM + Tween 80 (250 ppm)) was 97.6 ± 3.1% and the “Control value(%)” value ([3]; 50 mM + Tween 80 (250 ppm), listed as vitamin B1 hydrochloride) was no less than 97%. The “Degree of the disease severity” value ([3]; 100 mM + Tween 80 (250 ppm) spray, 1 week) was 0.3 ± 0.1, the “Control value(%)” value ([3]; 100 mM + Tween 80 (250 ppm)) was 97.2 ± 1.0% and the “Control value(%)” value ([3]; 100 mM + Tween 80 (250 ppm), listed as vitamin B1 hydrochloride) was no less than 97%. For the same molecule, the “Time after inoculation at which expression of all three defense genes was detected” value ([4]; in vivo) was 24 h, the “Time after treatment at which expression of defense genes was detected” value ([4]; in vivo) was 24 h and the “Expression of defense genes compared to groups A and B” value ([4]; rice treated with 50 mM and then inoculated with leaf blight bacteria (group C), FIG. 3) was “considerably increased”. For the same molecule, the “Time after treatment at which all defense genes tested were induced to express” value [5] was 4 h, the “Expression of defense genes compared to groups A and B” value ([6]; rice treated with 50 mM and then inoculated with rice blast fungus (group C)) was “considerably increased” and the “Time at which expression of defense genes was detected” value ([6]; rice treated with 50 mM only (group B)) was 24 h. The “Time after inoculation at which expression of all three defense genes was detected” value ([6]; rice treated with 50 mM, inoculated with rice blast fungus 24 hours later (group C)) was 24 h, the “Degree of the disease severity” value ([7]; 5 mM + Tween 80 (250 ppm) spray, inoculated 4 hours after treatment) was 6.5 ± 0.6 and the “Control value(%)” value ([7]; 5 mM + Tween 80 (250 ppm) spray, HCl) was 21.2 ± 7.2%. The “Control value(%)” value ([7]; 5 mM + Tween 80 (250 ppm) spray, listed as vitamin B1 hydrochloride, HCl) was “not more than 30%”, the “Degree of the disease severity” value ([7]; 10 mM + Tween 80 (250 ppm) spray) was 5.8 ± 1.5 and the “Control value(%)” value ([7]; 10 mM + Tween 80 (250 ppm) spray, HCl) was 30.3 ± 18.2%. The “Control value(%)” value ([7]; 10 mM + Tween 80 (250 ppm) spray, listed as vitamin B1 hydrochloride, HCl) was “not more than 30%”, the “Degree of the disease severity” value [7, 9] was 2.3 ± 1.4 and the “Control value(%)” value [7, 9] was 72.7 ± 17.0%. The “Degree of the disease severity” value [7, 10] was 2.8 ± 1.5, the “Control value(%)” value [7, 10] was 66.7 ± 18.2% and the “Degree of the disease severity” value ([7]; 100 mM + Tween 80 (250 ppm) spray) was 1.1 ± 0.8. The “Control value(%)” value ([7]; 100 mM + Tween 80 (250 ppm) spray, HCl) was 87.3 ± 9.7% and the “Control value(%)” value ([7]; 100 mM + Tween 80 (250 ppm) spray, listed as vitamin B1 hydrochloride, HCl) was “about 87%”.
With `Cc1ncc(C[n+]2csc(CCO)c2C)c(N)n1` [vitamin B1] the “Effectiveness for inducing the expression of defense genes in plants” value [8] was “the most effective”.
